This note sets out measurements from patent US9790173B2, “Alpha-7 nicotinic acetylcholine receptor modulators and uses thereof-I” (MERCK SHARP & DOHME CORP., priority 2012, dated 2017).

In series [1] the target is T1, rat α7 nAChRs (Rattus norvegicus, UniProt Q05941).
T1 construct: expressed in transfected cells; host or cells: GH4C1 cells (rat pituitary line) stably expressing α7 nAChR
The series can be described thus: Automated planar patch clamp (Patchliner) electrophysiology, α7 nAChR PAM activity. The following applies: for Type I or Type II: modulator type based on the electrophysiology trace; for activation at 3 µM: GH4-C1, 3 μM compound in the presence of acetylcholine, GH4C1 cells expressing rat α7 nAChRs, peak current, read-out: Peak potentiation at 3 μM compound. More on the design: key to Type I or Type II: I: Type 1 predominately affects the peak current; Type II modulators affect the peak current and also delay the desensitization of the receptor. The series is classed as cell-based. The method, then: Tested compounds were prepared by serial dilutions of 10 mM stock solution in DMSO to concentrations of the compound 1000 times higher than its final concentration. The DMSO stock solutions were then diluted 1:100 in the recording buffer bringing DMSO concentration to 1%. These intermediate solutions were further diluted 10 times with buffer to obtain final concentrations and lower DMSO concentration to 0.1%. […]
Compounds of the invention may be evaluated by electrophysiology using a Patchliner® (Nanion Technologies GmbH, Germany), an automated planar patch-clamp platform of medium throughput was used as a first step in electrophysiological assessment of α7 nAChR positive allosteric modulators (PAMs).
Briefly, intracellular (KCl—50 mM, NaCl—10 mM, KF—60 mM, EGTA—20 mM, HEPES—10 mM, pH—7.2, 285 mOsmol) and extracellular (NaCl—140 mM, KCl—4 mM, CaCl2—2 mM, MgCl2—1 mM, HEPES—10 mM, D-Glucose—5 mM, pH—7.4, 298 mOsmol) solutions were automatically pipetted onto NPC-16 chip (medium resistance ˜2.5-2.6 MΩ). Suspension of GH4C1 cells expressing rat α7 nAChRs was introduced in 4 wells of a medium resistance chip and suction was applied to attract cells in the holes. The extracellular solution was subsequently exchanged to high calcium solution (NaCl—80 mM, KCl—3 mM, CaCl2—45 mM, HEPES—10 mM, pH—7.4, 298 mOsmol) followed by gigaohm seal formation and obtaining whole-cell configuration. The rest of protocol was carried out in the high-calcium recording solution. Holding potential was −70 mV throughout the protocol. A control response to 60 or 100 μM of ACh was obtained first. Next, a cell was pre-incubated with compound of interest at 3 μM for ˜30 s after which the compound was co-applied with acetylcholine.
Amplitude of the responses was measured in HEKA Patchmaster software (HEKA Elektronik, Germany) and percentage of potentiation calculated. Recording was repeated […] a minimum of two replicates had been obtained per compound.
Compounds shown in Table 1 were evaluated by automated planar patch clamp on the Patchliner® as described in Example P2.1. […] The compounds are designated either as Type I or Type II modulators based on the electrophysiology trace. Type 1 predominately affects the peak current. Type II modulators affect the peak current and also delay the desensitization of the receptor.
Background: The patch-clamp technique gives a direct electrical read-out from membranes.

T1 sequence (Q05941 23-502): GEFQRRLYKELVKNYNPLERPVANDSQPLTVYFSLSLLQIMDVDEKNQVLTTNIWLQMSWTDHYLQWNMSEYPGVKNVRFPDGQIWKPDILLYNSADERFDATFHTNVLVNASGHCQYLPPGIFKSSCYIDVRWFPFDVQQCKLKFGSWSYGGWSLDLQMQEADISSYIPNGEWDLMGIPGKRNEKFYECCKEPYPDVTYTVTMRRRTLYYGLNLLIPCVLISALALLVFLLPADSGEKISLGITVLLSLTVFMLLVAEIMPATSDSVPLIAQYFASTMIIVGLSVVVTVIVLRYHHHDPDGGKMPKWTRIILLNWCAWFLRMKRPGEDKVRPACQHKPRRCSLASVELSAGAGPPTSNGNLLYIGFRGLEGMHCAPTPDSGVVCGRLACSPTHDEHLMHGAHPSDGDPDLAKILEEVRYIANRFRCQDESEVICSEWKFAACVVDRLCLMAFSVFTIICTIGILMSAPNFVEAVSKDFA

As usually defined, the melting point is the temperature of the solid-liquid transition. In turn, `COc1ccc(NC[C@@H]2[C@@H](c3ccc(S(N)(=O)=O)cc3)C23CCCC3)c(OC)n1` [Example 9, ±trans 4-(2-{[(2,6-dimethoxypyridin-3-yl)amino]methyl}spiro[2.4]hept-1-yl)benzenesulfonamide] showed a melting point of 56 to 58 °C. In series [1], the “Type I or Type II” value was “II”.

Regarding `Cc1ccc(Cl)cc1NC[C@@H]1[C@@H](c2ccc(S(N)(=O)=O)cc2)C1(C)C` [Example 22, ±trans 4-[3-{[(5-chloro-2-methylphenyl)amino]methyl}-2,2-dimethylcyclopropyl]benzenesulfonamide], the melting point fell in the range of 60 to 62 °C. For the same compound, the “Type I or Type II” value in series [1] is listed as “II”.

In turn, `COc1ccc(F)cc1NC[C@@H]1[C@@H](c2ccc(S(N)(=O)=O)cc2)C1(C)C` [Example 23, ±trans 4-[3-{[(5-fluoro-2-methoxyphenyl)amino]methyl}-2,2-dimethylcyclopropyl]benzenesulfonamide] displayed a melting point of 164 to 166 °C. Besides, the “Type I or Type II” value in series [1] is given as “II”.

Compound `CC1(C)[C@H](CNc2cccc(Cl)c2)[C@H]1c1ccc(S(N)(=O)=O)cc1` [Example 24, ±trans 4-[3-{[(3-chlorophenyl)amino]methyl}-2,2-dimethylcyclopropyl]benzenesulfonamide] gave a melting point of 120 to 122 °C. Further, in series [1], the activation at 3 µM was determined as 901% and the “Type I or Type II” value is recorded as “II”.

On to `COc1ccccc1NC[C@@H]1[C@@H](c2ccc(S(N)(=O)=O)cc2)C1(C)C` [Example 25, ±trans 4-[3-{[(2-methoxyphenyl)amino]methyl}-2,2-dimethylcyclopropyl]benzenesulfonamide], for which the “Type I or Type II” value in series [1] is listed as “II”.

With `CC1(C)[C@H](CNc2cccc(N3CCOCC3)c2)[C@H]1c1ccc(S(N)(=O)=O)cc1` [Example 26, ±trans 4-[2,2-dimethyl-3-({[3-(morpholin-4-yl)phenyl]amino}methyl)cyclopropyl]benzenesulfonamide], in series [1], the activation at 3 µM was 455% and the “Type I or Type II” value is reported as “II”.

The compound `CCOc1ccc(Cl)cc1NC[C@@H]1[C@@H](c2ccc(S(N)(=O)=O)cc2)C1(C)C` [Example 27, ±trans 4-[3-{[(5-chloro-2-ethoxyphenyl)amino]methyl}-2,2-dimethylcyclopropyl]benzenesulfonamide] came in with a melting point of 122 to 124 °C. Moreover, the “Type I or Type II” value in series [1] is “I”.

On to `COc1ccc(C(F)(F)F)cc1NC[C@@H]1[C@@H](c2ccc(S(N)(=O)=O)cc2)C1(C)C` [Example 28, ±trans 4-[3-({[2-methoxy-5-(trifluoromethyl)phenyl]amino}methyl)-2,2-dimethylcyclopropyl]benzenesulfonamide], for which the melting point is 68 to 70 °C. In addition, the “Type I or Type II” value in series [1] is on record as “II”.

Consider `Cc1ccc(F)cc1NC[C@@H]1[C@@H](c2ccc(S(N)(=O)=O)cc2)C1(C)C` [Example 29, 4-[(1R,3R)-3-{[(5-fluoro-2-methylphenyl)amino]methyl}-2,2-dimethylcyclopropyl]benzenesulfonamide], for which, in series [1], the activation at 3 µM is 456% and the “Type I or Type II” value was “I”.

For the compound `Cc1ccc(F)cc1NC[C@H]1[C@H](c2ccc(S(N)(=O)=O)cc2)C1(C)C` [Example 31, 4-[(1S,3S)-3-{[(5-fluoro-2-methylphenyl)amino]methyl}-2,2-dimethylcyclopropyl]benzenesulfonamide], the “Type I or Type II” value in series [1] was “II”.

For the compound `Cc1cc(F)c(F)cc1NC[C@H]1[C@H](c2ccc(S(N)(=O)=O)cc2)C1(C)C` [Example 32, 4-[(1S,3S)-3-{[(4,5-difluoro-2-methylphenyl)amino]methyl}-2,2-dimethylcyclopropyl]benzenesulfonamide], in series [1], the “Type I or Type II” value is reported as “II”.

As to `Cc1ncccc1NC[C@@H]1[C@@H](c2ccc(S(N)(=O)=O)cc2)C1(C)C` [Example 36, ±trans 4-[2,2-dimethyl-3-{[(2-methylpyridin-3-yl)amino]methyl}cyclopropyl]benzenesulfonamide], the melting point lay within 174 to 176 °C. In series [1], the activation at 3 µM came out at 125% and the “Type I or Type II” value was “II”.

`Cc1cc(F)c(Cl)cc1NC[C@@H]1[C@@H](c2ccc(S(N)(=O)=O)cc2)C1(C)C` [Example 37, ±trans 4-[3-{[(3-chloro-4-fluoro-2-methylphenyl)amino]methyl}-2,2-dimethylcyclopropyl]benzenesulfonamide] gave a melting point of 164 to 166 °C. In addition, in series [1], the “Type I or Type II” value is on record as “II”.

Take `CCc1ccc(F)cc1NC[C@H]1[C@H](c2ccc(S(N)(=O)=O)cc2)C1(C)C` [Example 39, ±trans 4-[3-{[(2-ethyl-5-fluorophenyl)amino]methyl}-2,2-dimethylcyclopropyl]benzenesulfonamide]: in series [1], the “Type I or Type II” value is on record as “II”.

`CC1(C)[C@@H](CNc2cc(OC(F)(F)F)ccc2F)[C@@H]1c1ccc(S(N)(=O)=O)cc1` [Example 40, ±trans 4-[3-({[2-fluoro-5-(trifluoromethoxy)phenyl]amino}methyl)-2,2-dimethylcyclopropyl]benzenesulfonamide]: in series [1], the activation at 3 µM worked out at 309% and the “Type I or Type II” value is listed as “II”.

Consider `CC1(C)[C@@H](CNc2cc(F)ccc2OC(F)(F)F)[C@@H]1c1ccc(S(N)(=O)=O)cc1` [Example 41, ±trans 4-[3-({[5-fluoro-2-(trifluoromethoxy)phenyl]amino}methyl)-2,2-dimethylcyclopropyl]benzenesulfonamide], for which the “Type I or Type II” value in series [1] is “I”.

`COc1ncccc1NC[C@@H]1[C@@H](c2ccc(S(N)(=O)=O)cc2)C1(C)C` [Example 42, ±trans 4-(3-{[(2-methoxypyridin-3-yl)amino]methyl}-2,2-dimethylcyclopropyl)benzenesulfonamide] gave a melting point of 98 to 100 °C. Besides, in series [1], the “Type I or Type II” value is recorded as “II”.

For the compound `COc1ccc(Cl)cc1NC[C@@H]1[C@@H](c2ccc(-c3ccccc3O)cc2)C1(C)C` [Example 43, ±trans 4′-[3-{[(5-chloro-2-methoxyphenyl)amino]methyl}-2,2-dimethylcyclopropyl]biphenyl-2-ol], in series [1], the activation at 3 µM was 100% and the “Type I or Type II” value is “I”.

`CCOc1ccccc1NC[C@@H]1[C@@H](c2ccc(S(N)(=O)=O)cc2)C1(C)C` [Example 44, ±trans 4-[3-{[(2-ethoxyphenyl)amino]methyl}-2,2-dimethylcyclopropyl]benzenesulfonamide]: the “Type I or Type II” value in series [1] is on record as “I”.

Compound `CC1(C)[C@H](CNc2cc(Cl)ccc2C(F)(F)F)[C@H]1c1ccc(S(N)(=O)=O)cc1` [Example 45, ±trans 4-[3-({[5-chloro-2-(trifluoromethyl)phenyl]amino}methyl)-2,2-dimethylcyclopropyl]benzenesulfonamide] had a melting point of 124 to 126 °C. Besides, the “Type I or Type II” value in series [1] was “I”.

Compound `Cc1cccnc1NC[C@@H]1[C@@H](c2ccc(S(N)(=O)=O)cc2)C12CCCC2` [Example 49, ±trans 4-[2-{[(3-methylpyridin-2-yl)amino]methyl}spiro[2.4]hept-1-yl]benzenesulfonamide] came in with a melting point of 82 to 84 °C. Further, the “Type I or Type II” value in series [1] was “II”.

On to `NS(=O)(=O)c1ccc([C@H]2C[C@@H]2CNc2cc(F)ccc2OC(F)(F)F)cc1` [Example 52, 4-[(1S,2S)-2-({[5-fluoro-2-(trifluoromethoxy)phenyl]amino}methyl)cyclopropyl]benzenesulfonamide], for which the melting point lay within 115 to 118 °C. In addition, the “Type I or Type II” value in series [1] is on record as “II”.

For `COc1ccc(Cl)cc1NC[C@@H]1[C@@H](c2ccc(S(=O)(=O)NO)cc2)C1(C)C` [Example 55, ±trans 4-[3-{[(5-chloro-2-methoxyphenyl)amino]methyl}-2,2-dimethylcyclopropyl]-N-hydroxybenzenesulfonamide], in series [1], the activation at 3 µM amounted to 724% and the “Type I or Type II” value is reported as “I”.

Regarding `COc1ccc(Cl)cc1NC[C@@H]1[C@@H](c2ccc(S(=O)(=O)NN)cc2)C1(C)C` [Example 56, ±trans 4-[3-{[(5-chloro-2-methoxyphenyl)amino]methyl}-2,2-dimethylcyclopropyl]benzenesulfonohydrazide], in series [1], the activation at 3 µM turned out to be 131% and the “Type I or Type II” value is recorded as “I”.
